Among the data in US20100210635A1, “RENIN INHIBITORS” (Takeda Pharmaceutical Company Limited, priority 2006, published 2010) are IC50 values, retold here.

Molecules are shown by their SMILES. Some results are limits rather than exact numbers.

One experiment deals with T1, Recombinant human renin (Homo sapiens, UniProt P00797).
T1 construct: isolate the active form (residues 67-406); made in house; host or cells: FreeStyle 293-F cells (transient expression of pcDNA3.1(+)/hREN)
T1 sequence (P00797 67-406): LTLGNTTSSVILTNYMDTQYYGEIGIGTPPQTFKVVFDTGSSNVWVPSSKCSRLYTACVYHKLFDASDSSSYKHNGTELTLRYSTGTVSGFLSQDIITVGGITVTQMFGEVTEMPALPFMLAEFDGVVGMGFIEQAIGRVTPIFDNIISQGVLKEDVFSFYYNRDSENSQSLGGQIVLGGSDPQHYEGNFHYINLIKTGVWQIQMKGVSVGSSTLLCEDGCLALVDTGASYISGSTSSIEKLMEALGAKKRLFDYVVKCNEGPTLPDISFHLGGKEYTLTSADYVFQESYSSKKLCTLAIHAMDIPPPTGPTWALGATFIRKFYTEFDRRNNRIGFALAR
The experiment can be described thus: In vitro enzymatic activity assay of Renin inhibitors (fluorescence, QXL520/HiLyteFluo488 peptide substrate). The format is biochemical.
Settings: not given
In outline: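 Recombinant human renin (active form, residues 67-406; 3 nM final) pre-incubated 10 min at 37 °C with compounds in Hepes buffer pH 7.4 with 0.1 mg/ml BSA (optionally plus 2% BSA), 5% DMSO. Reaction started with 1 μM FRET peptide substrate; fluorescence (ex 485/em 538 nm) change over 1 h at 37 °C versus vehicle gives % inhibition, and pIC50/IC50 come from curve fitting.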
Take `CC(=O)NCCc1ccccc1Oc1ccccc1CCC(=O)N1CCNC[C@H]1Cc1ccc(OC(=O)N2CCOCC2)cc1` [Example 80, (R)-4-((1-(3-(2-(2-(2-acetamidoethyl)phenoxy)phenyl)propanoyl)piperazin-2-yl)methyl)phenyl morpholine-4-carboxylate]: the concentration for half-maximal inhibition (IC50) (in general, the concentration that gives 50% inhibition) was in the range of 0.5 to 5 µM.

Staying with this experiment, now noted: recombinant human renin 3 nM, 1 μM substrate, 37° C., pH 7.4; values given as ranges; read-out: IC50 of Exemplified Compounds Against Renin.
In the case of `CCC(=O)NCCc1ccccc1Oc1ccccc1CCC(=O)N1CCNC[C@H]1Cc1ccccc1` [Example 78, (R)—N-(2-(2-(3-(2-benzylpiperazin-1-yl)-3-oxopropyl)phenoxy)phenethyl)propionamide], the IC50 is below 0.5 µM.

Regarding `CC(=O)NCCc1ccccc1Oc1ccccc1CCC(=O)N1CCNC[C@H]1Cc1ccc(O)cc1` [Example 79, (R)—N-(2-(2-(3-(2-(4-hydroxybenzyl)piperazin-1-yl)-3-oxopropyl)phenoxy)phenethyl)acetamide], the half-maximal inhibitory concentration (IC50) is below 0.5 µM.

Regarding `CC(=O)NCCc1ccccc1Oc1ccccc1CCC(=O)N1CCNC[C@H]1Cc1ccc(OCC(N)=O)cc1` [Example 81, (R)-2-(4-((1-(3-(2-(2-(2-acetamidoethyl)phenoxy)phenyl)propanoyl)piperazin-2-yl)methyl)phenoxy)acetamide], the concentration for half-maximal inhibition (IC50) was below 0.5 µM.

Regarding `O=C(O)CCc1ccccc1Oc1ccccc1CCC(=O)N1CCNC[C@H]1Cc1ccccc1` [Example 82, (R)-3-(2-(2-(3-(2-Benzylpiperazin-1-yl)-3-oxopropyl)phenoxy)phenyl)propanoic acid], the 50% inhibitory concentration (IC50) lay within 0.5 to 5 µM.

As to `NC(=O)CCc1ccccc1Oc1ccccc1CCC(=O)N1CCNC[C@H]1Cc1ccccc1` [Example 83, (R)-3-(2-(2-(3-(2-benzylpiperazin-1-yl)-3-oxopropyl)phenoxy)phenyl)propanamide], the IC50 is below 0.5 µM.

Regarding `CC(=O)NCCc1ccccc1Cc1ccccc1CCC(=O)N1CCNC[C@H]1Cc1ccccc1` [Example 84, (R)—N-(2-(2-(3-(2-benzylpiperazin-1-yl)-3-oxopropyl)benzyl)phenethyl)acetamide], the IC50 was below 0.5 µM.

`O=C(CCc1ccccc1Oc1ccccc1)N1CCNC[C@H]1Cc1ccc(OCc2nnn[nH]2)cc1` [Example 85, (R)-1-(2-(4-((1H-tetrazol-5-yl)methoxy)benzyl)piperazin-1-yl)-3-(2-phenoxyphenyl)propan-1-one]: the IC50 is below 0.5 µM.

For `O=C(O)COc1ccc(C[C@@H]2CNCCN2C(=O)CCc2ccccc2Oc2ccccc2)cc1` [Example 86, (R)-2-(4-((1-(3-(2-phenoxyphenyl)propanoyl)piperazin-2-yl)methyl)phenoxy)acetic acid], the half-inhibitory concentration (IC50) lay in the range of 0.5 to 5 µM.

`O=C(CCc1ccccc1Oc1ccccc1CO)N1CCNC[C@H]1Cc1ccccc1` [Example 87, (R)-1-(2-benzylpiperazin-1-yl)-3-(2-(2-(hydroxymethyl)phenoxy)phenyl)propan-1-one]: the IC50 was below 0.5 µM.

Take `CC(=O)NCCc1ccccc1Cc1ccccc1CCC(=O)N1CCNC[C@H]1Cc1ccc(O)cc1` [Example 88, (R)—N-(2-(2-(3-(2-(4-hydroxybenzyl)piperazin-1-yl)-3-oxopropyl)benzyl)phenethyl)acetamide]: the IC50 is below 0.5 µM.

Consider `CC(=O)NCCc1ccccc1Cc1ccccc1CCC(=O)N1CCNC[C@H]1Cc1ccc(OCC(N)=O)cc1` [Example 89, (R)-2-(4-((1-(3-(2-(2-(2-acetamidoethyl)benzyl)phenyl)propanoyl)piperazin-2-yl)methyl)phenoxy)acetamide], for which the IC50 is below 0.5 µM.

For the compound `CC(=O)NCCc1ccccc1Cc1ccccc1CCC(=O)N1CCNC[C@H]1Cc1ccc(OCC(=O)O)cc1` [Example 90, (R)-2-(4-((1-(3-(2-(2-(2-acetamidoethyl)benzyl)phenyl)propanoyl)piperazin-2-yl)methyl)phenoxy)acetic acid], the half-maximal inhibitory concentration (IC50) was below 0.5 µM.

`CC(=O)NCCc1ccccc1Cc1ccccc1CCC(=O)N1CCNC[C@H]1Cc1ccc(OCC(=O)NS(C)(=O)=O)cc1` [Example 91, (R)-2-(4-((1-(3-(2-(2-(2-acetamidoethyl)benzyl)phenyl)propanoyl)piperazin-2-yl)methyl)phenoxy)-N-(methylsulfonyl)acetamide]: the IC50 is below 0.5 µM.
